Assay results reported in US5441941A, “1,2-dihydroellipticines with activity against CNS specific cancer” (The United States of America as represented by the …, priority 1993, dated 1995).

What was measured:
[1] = tested on: HOP-62; assay: NCI in vitro screen, SRB percent growth, Non-Small Cell Lung Cancer
[2] = tested on: TK-10; assay: NCI in vitro screen, SRB percent growth, Renal Cancer
[3] = tested on: ACHN; assay: as above
[4] = tested on: XF 498; assay: NCI in vitro screen, SRB percent growth, CNS Cancer
[5] = tested on: LXFL 529; assay: cells; conditions: Homo sapiens
[6] = tested on: DMS 114; assay: cells; conditions: Homo sapiens
[7] = tested on: SF-268; assay: NCI in vitro screen, SRB percent growth, CNS Cancer
[8] = tested on: U251; assay: as above
[9] = tested on: NCI-H460; assay: NCI in vitro screen, SRB percent growth, Non-Small Cell Lung Cancer
[10] = tested on: UACC-257; assay: NCI in vitro screen, SRB percent growth, Melanoma
[11] = tested on: OVCAR-3; assay: NCI in vitro screen, SRB percent growth, Ovarian Cancer
[12] = tested on: CAKI-1; assay: NCI in vitro screen, SRB percent growth, Renal Cancer
[13] = tested on: HCT-15; assay: NCI in vitro screen, SRB percent growth, Colon Cancer
[14] = tested on: SK-MEL-28; assay: NCI in vitro screen, SRB percent growth, Melanoma
[15] = tested on: MOLT-4; assay: cells; conditions: Homo sapiens
[16] = tested on: HCC-2998; assay: cells; conditions: Homo sapiens
[17] = tested on: A549/ATCC; assay: NCI in vitro screen, SRB percent growth, Non-Small Cell Lung Cancer
[18] = Log10 Concentration -4.0, 100 µM
[19] = Log10 Concentration -7.0, 0.1 µM
[20] = LXFL 529, read-out: Percent Growth
[21] = MOLT-4, read-out: Percent Growth
[22] = HCC 2998, read-out: Percent Growth

`Cc1ccc2[nH]c3c(C)c4c(c(C)c3c2c1)CN(C)C=C4` [Formula XI] was tested, and the “Percent Growth” value [1, 18] was -89%, the “Percent Growth” value ([1]; Log10 Concentration -5.0) was -39% and the “Percent Growth” value ([1]; Log10 Concentration -6.0, 1 µM) was 11%. For the same compound, the “Percent Growth” value [1, 19] was 119%, the “Percent Growth” value ([1]; Log10 Concentration -8.0) was 121% and the TGI ([1]; PG=0) was 1.64 µM. For the same compound, the GI50 ([1]; PG=+50) was 0.433 µM, the CC50 ([1]; read-out: LC-50, PG=-50) was 16.3 µM and the “Percent Growth” value [2, 18] was -93%. For the same compound, the “Percent Growth” value ([2]; Log10 Concentration -5.0) was 49%, the “Percent Growth” value ([2]; Log10 Concentration -6.0, 1 µM) was 90% and the “Percent Growth” value [2, 19] was 101%. The “Percent Growth” value ([2]; Log10 Concentration -8.0) was 103%, the TGI ([2]; PG=0) was 22.1 µM and the GI50 ([2]; PG=+50) was 9.46 µM. The CC50 ([2]; read-out: LC-50, PG=-50) was 49.6 µM, the “Percent Growth” value [3, 18] was -92% and the “Percent Growth” value ([3]; Log10 Concentration -5.0) was 30%. For the same compound, the “Percent Growth” value ([3]; Log10 Concentration -6.0, 1 µM) was 81%, the “Percent Growth” value [3, 19] was 96% and the “Percent Growth” value ([3]; Log10 Concentration -8.0) was 101%. It also gave a TGI ([3]; PG=0) of 17.6 µM, a GI50 ([3]; PG=+50) of 4.02 µM and a CC50 ([3]; read-out: LC-50, PG=-50) of 45.1 µM. The “Percent Growth” value [4, 18] was -57%, the “Percent Growth” value ([4]; Log10 Concentration -5.0) was -33% and the “Percent Growth” value ([4]; Log10 Concentration -6.0, 1 µM) was 46%. The “Percent Growth” value [4, 19] was 98%, the “Percent Growth” value ([4]; Log10 Concentration -8.0) was 101% and the TGI ([4]; PG=0) was 3.84 µM. For the same compound, the GI50 ([4]; PG=+50) was 0.851 µM, the CC50 ([4]; read-out: LC-50, PG=-50) was 50.4 µM and the GI50 ([5]; LXFL 529) was 0.353 µM. For the same compound, the CC50 ([5]; LXFL 529, read-out: LC-50) was 9.23 µM, the activity at 0.01 µM [5, 20] was 78% and the activity at 0.1 µM [5, 20] was 68%. It also gave an activity at 1 µM [5, 20] of 35%, an activity at 10 µM [5, 20] of -53% and an activity at 100 µM [5, 20] of -84%. The IC (TGI) ([5]; LXFL 529, read-out: TGI) was 2.51 µM, the GI50 ([6]; DMS-114) was 0.414 µM and the IC (TGI) ([6]; DMS-114, read-out: TGI) was 2.12 µM. For the same compound, the “Percent Growth” value [7, 18] was -83%, the “Percent Growth” value ([7]; Log10 Concentration -5.0) was -94% and the “Percent Growth” value ([7]; Log10 Concentration -6.0, 1 µM) was -39%. For the same compound, the “Percent Growth” value [7, 19] was 96%, the “Percent Growth” value ([7]; Log10 Concentration -8.0) was 101% and the TGI ([7]; PG=0) was 0.514 µM. The GI50 ([7]; PG=+50) was 0.218 µM, the CC50 ([7]; read-out: LC-50, PG=-50) was 1.6 µM and the “Percent Growth” value ([8]; Log10 Concentration -5.0) was -72%. For the same compound, the “Percent Growth” value ([8]; Log10 Concentration -6.0, 1 µM) was 3%, the “Percent Growth” value [8, 19] was 89% and the “Percent Growth” value ([8]; Log10 Concentration -8.0) was 99%. It also gave a TGI ([8]; PG=0) of 1.1 µM, a GI50 ([8]; PG=+50) of 0.286 µM and a CC50 ([8]; read-out: LC-50, PG=-50) of 5.12 µM. The “Percent Growth” value [9, 18] was -85%, the “Percent Growth” value ([9]; Log10 Concentration -5.0) was 8% and the “Percent Growth” value ([9]; Log10 Concentration -6.0, 1 µM) was 78%. The “Percent Growth” value [9, 19] was 91%, the “Percent Growth” value ([9]; Log10 Concentration -8.0) was 99% and the TGI ([9]; PG=0) was 12.1 µM. The GI50 ([9]; PG=+50) was 2.51 µM, the CC50 ([9]; read-out: LC-50, PG=-50) was 42.1 µM and the “Percent Growth” value [10, 18] was -87%. The “Percent Growth” value ([10]; Log10 Concentration -5.0) was -8%, the “Percent Growth” value ([10]; Log10 Concentration -6.0, 1 µM) was 86% and the “Percent Growth” value [10, 19] was 90%. The “Percent Growth” value ([10]; Log10 Concentration -8.0) was 97%, the TGI ([10]; PG=0) was 8.23 µM and the GI50 ([10]; PG=+50) was 2.43 µM. For the same compound, the CC50 ([10]; read-out: LC-50, PG=-50) was 34.3 µM, the “Percent Growth” value [11, 18] was -91% and the “Percent Growth” value ([11]; Log10 Concentration -5.0) was 5%. The “Percent Growth” value ([11]; Log10 Concentration -6.0, 1 µM) was 76%, the “Percent Growth” value [11, 19] was 94% and the “Percent Growth” value ([11]; Log10 Concentration -8.0) was 98%. The TGI ([11]; PG=0) was 11.3 µM, the GI50 ([11]; PG=+50) was 2.34 µM and the CC50 ([11]; read-out: LC-50, PG=-50) was 37.6 µM. The “Percent Growth” value [12, 18] was -89%, the “Percent Growth” value ([12]; Log10 Concentration -6.0, 1 µM) was 56% and the “Percent Growth” value [12, 19] was 106%. For the same compound, the “Percent Growth” value ([12]; Log10 Concentration -8.0) was 116%, the TGI ([12]; PG=0) was 5.89 µM and the GI50 ([12]; PG=+50) was 1.21 µM. The CC50 ([12]; read-out: LC-50, PG=-50) was 28.8 µM, the “Percent Growth” value [13, 18] was -87% and the “Percent Growth” value ([13]; Log10 Concentration -5.0) was 76%. For the same compound, the “Percent Growth” value ([13]; Log10 Concentration -6.0, 1 µM) was 95%, the “Percent Growth” value [13, 19] was 102% and the “Percent Growth” value ([13]; Log10 Concentration -8.0) was 111%. For the same compound, the TGI ([13]; PG=0) was 29.3 µM, the GI50 ([13]; PG=+50) was 14.5 µM and the CC50 ([13]; read-out: LC-50, PG=-50) was 59.6 µM. The “Percent Growth” value [14, 18] was -95%, the “Percent Growth” value ([14]; Log10 Concentration -5.0) was -61% and the “Percent Growth” value ([14]; Log10 Concentration -6.0, 1 µM) was 108%. For the same compound, the “Percent Growth” value [14, 19] was 115%, the “Percent Growth” value ([14]; Log10 Concentration -8.0) was 114% and the TGI ([14]; PG=0) was 4.37 µM. The GI50 ([14]; PG=+50) was 2.21 µM, the CC50 ([14]; read-out: LC-50, PG=-50) was 8.62 µM and the GI50 ([15]; MOLT-4) was 2.14 µM. It also gave a CC50 ([15]; MOLT-4, read-out: LC-50) of over 100 µM, an activity at 0.01 µM [15, 21] of 104% and an activity at 0.1 µM [15, 21] of 101%. It also gave an activity at 1 µM [15, 21] of 68%, an activity at 10 µM [15, 21] of 14% and an activity at 100 µM [15, 21] of -50%. The IC (TGI) ([15]; MOLT-4, read-out: TGI) was 16.5 µM, the GI50 ([16]; HCC 2998) was 1.69 µM and the CC50 ([16]; HCC 2998, read-out: LC-50) was 7.89 µM. It also gave an activity at 0.01 µM [16, 22] of 105%, an activity at 0.1 µM [16, 22] of 108% and an activity at 1 µM [16, 22] of 84%. It also gave an activity at 10 µM [16, 22] of -65%, an activity at 100 µM [16, 22] of -91% and an IC (TGI) ([16]; HCC 2998, read-out: TGI) of 3.65 µM. The “Percent Growth” value [17, 18] was -66%, the “Percent Growth” value ([17]; Log10 Concentration -5.0) was -15% and the “Percent Growth” value ([17]; Log10 Concentration -6.0, 1 µM) was 33%. The “Percent Growth” value [17, 19] was 86%, the “Percent Growth” value ([17]; Log10 Concentration -8.0) was 96% and the TGI ([17]; PG=0) was 4.9 µM. It also gave a GI50 ([17]; PG=+50) of 0.469 µM and a CC50 ([17]; read-out: LC-50, PG=-50) of 48.5 µM.
